Assay results as given in patent publication US20040063580A1, “Bicyclic triazolone derivatives and a herbicides containing the same” (priority 2000, published 2004).
Where “and” joins values, the source holds several entries; their conditions need not be identical. Equal values may be shown once.

Assays:
tall morningglory = experiment: Herbicidal effects against weeds (post emergence), tall morningglory; format: in vivo; details: post emergence spray, evaluated two weeks after treatment
Protocol: (§1) Herbicidal Effects Against Weeds (Post Emergence)
(§2) After filling 300 g field soil in jiffypot™ having diameter of 10 cm, the soil was steam sterilized. Seeds of velvetleaf, redroot pigweed, tall morningglory and corn onto the surface of the soil were scattered, and then covered with the soil to a thickness of 0.5 cm for the weed, 1 cm for the crop. When the weed and the crop reached the designated growth stage, they were treated with the compound to be tested.
(§3) Preparation of the Test Solution and the Method of Treatment
(§4) The compound to be tested was dissolved in acetone which contain Tween 20™ and diluted with deionized water to prepare the test solution for 10 g/a and 1 g/a use. The test solution was sprayed on the pots in a device for spraying using spraygun.
(§5) Method of Indicating the Effect and Phytotoxicity
(§6) The effect of the compound tested on the weeds and phytotoxicity on the crops were evaluated two weeks after treatment with the compound as 6 grades from 0 to 5 shown in the Table 9 and 10.
(§7) In the Table 11 and 12, the herbicidal effects were indicated by the following evaluation index.

velvetleaf = experiment: Herbicidal effects against weeds (post emergence), velvetleaf; format: in vivo; details: post emergence spray, evaluated two weeks after treatment
Protocol: as §1, §2, §3, §4, §5, §6, §7

redroot pigweed = experiment: Herbicidal effects against weeds (post emergence), redroot pigweed; format: in vivo; details: post emergence spray, evaluated two weeks after treatment
Protocol: as §1, §2, §3, §4, §5, §6, §7

corn = experiment: Post emergence test, phytotoxicity on the crop corn; format: in vivo; details: post emergence spray, evaluated two weeks after treatment
Protocol: as §1, §2, §3, §4, §5, §6
The phytotoxicity was indicated by the following evaluation index.

CCOC(=O)CSc1cc(-n2nc3ccc(Cl)cn3c2=O)c(F)cc1C#N [A-19]
Evaluation index Tall morning glory (tall morningglory; 10 g/a): 5 (maximum *all dead) 100) | Evaluation index Velvet leaf (velvetleaf; 10 g/a): 5 (maximum *all dead) 100)

CCOC(=O)COc1cc(-n2nc3ccc(Cl)cn3c2=O)c(F)cc1Cl [A-27]
Evaluation index Tall morning glory (tall morningglory; 10 g/a): 5 (maximum *all dead) 100) | Evaluation index Velvet leaf (velvetleaf; 10 g/a): 5 (maximum *all dead) 100)

CCS(=O)(=O)Nc1cc(-n2nc3c(Cl)cccn3c2=O)c(F)cc1C#N [A-48]
Evaluation index Tall morning glory (tall morningglory; 10 g/a): 5 (maximum *all dead) 100) | Evaluation index Velvet leaf (velvetleaf; 10 g/a): 5 (maximum *all dead) 100)

CCS(=O)(=O)Nc1cc(-n2nc3ccc(C)cn3c2=O)c(F)cc1C#N [A-50]
Evaluation index Tall morning glory (tall morningglory; 10 g/a): 5 (maximum *all dead) 100) | Evaluation index Velvet leaf (velvetleaf; 10 g/a): 5 (maximum *all dead) 100)

Cc1cc2c(-n3nc4ccc(Cl)cn4c3=O)c(F)cc(Cl)c2o1 [A-62, 6-Chloro-2-(7-chloro-5-fluoro-2-methylbenzofuran-4-yl)-1,2,4-triazolo[4,3-a]pyridin-3(2H)-one]
Evaluation index Redroot pigweed (redroot pigweed; 1 g/a): 5 (maximum *all dead) 100) | Evaluation index Redroot pigweed (redroot pigweed; 10 g/a): 5 (maximum *all dead) 100) | melting point: 205 to 207 °C | Evaluation index Velvet leaf (velvetleaf; 1 g/a): 5 (maximum *all dead) 100) | Evaluation index Velvet leaf (velvetleaf; 10 g/a): 5 (maximum *all dead) 100) | Evaluation index Corn (phytotoxicity) (corn; 1 g/a): 1 (small 0.1 to 12.5) | Evaluation index Corn (phytotoxicity) (corn; 10 g/a): 1 (small 0.1 to 12.5)

CCS(=O)(=O)Nc1cc(-n2nc3ccc(Cl)cn3c2=O)c(F)cc1C#N [Compound No. A-3, 6-Chloro-2-(4-cyano-5-ethanesulfonylamino-2-fluorophenyl)-1,2,4-triazolo[4,3-a]pyridin-3(2H)-one]
melting point: 220 to 222 °C | Evaluation index Tall morning glory (tall morningglory; 1 g/a): 4 (maximum 87.6 to 99.9) | Evaluation index Velvet leaf (velvetleaf; 1 g/a): 5 (maximum *all dead) 100) | Evaluation index Corn (phytotoxicity) (corn; 1 g/a): 1 (small 0.1 to 12.5)

CCS(=O)(=O)N(C(C)=O)c1cc(-n2nc3ccc(Cl)cn3c2=O)c(F)cc1C#N [Compound No. A-6, 2-[5-(N-acetyl-N-ethanesulfonylamino)-4-cyano-2-fluorophenyl]-6-chloro-1,2,4-triazolo[4,3-a]pyridin-3(2H)-one]
Evaluation index Redroot pigweed (redroot pigweed; 10 g/a): 5 (maximum *all dead) 100) | melting point: 220 to 222 °C | Evaluation index Velvet leaf (velvetleaf; 10 g/a): 5 (maximum *all dead) 100) | Evaluation index Corn (phytotoxicity) (corn; 10 g/a): 1 (small 0.1 to 12.5)

C#CCOc1cc(-n2nc3ccc(Cl)cn3c2=O)c(F)cc1C#N [Compound No. A-14, 6-Chloro-2-(4-cyano-2-fluoro-5-propargyloxyphenyl)-1,2,4-triazolo[4,3-a]pyridin-3(2H)-one]
melting point: 209 to 211 °C

CC(C)c1sc(F)c(-n2nc3ccc(Cl)cn3c2=O)c1C#N [Compound No. A-18, 6-Chloro-2-(4-cyano-2-fluoro-5-isopropylthiophenyl)-1,2,4-triazolo[4,3-a]pyridin-3(2H)-one]
melting point: 148 to 150 °C

CCC(=O)NS(=O)(=O)c1cc(-n2nc3ccc(Cl)cn3c2=O)c(F)cc1C#N [Compound No. A-20, 5-(6-Chloro-2,3-dihydro-3-oxo-1,2,4-triazolo[4,3-a]pyridin-2-yl)-2-cyano-4-fluoro-N-propionylbenzenesul fonamide]
melting point: 190 to 194 °C

CNS(=O)(=O)c1cc(-n2nc3ccc(Cl)cn3c2=O)c(F)cc1C#N [Compound No. A-21, 5-(6-Chloro-2,3-dihydro-3-oxo-1,2,4-triazolo[4,3-a]pyridin-2-yl)-2-cyano-4-fluoro-N-methylbenzenesulfonamide]
melting point: 154 to 157 °C

COc1cc(-n2nc3ccc(Cl)cn3c2=O)c(F)cc1Cl [Compound No. A-23, 6-Chloro-2-(4-chloro-2-fluoro-5-methoxyphenyl)-1,2,4-triazolo[4,3-a]pyridin-3(2H)-one]
melting point: 140 to 142 °C

C#CCOc1cc(-n2nc3ccc(Cl)cn3c2=O)c(F)cc1Cl [Compound No. A-25, 6-Chloro-2-(4-chloro-2-fluoro-5-propargyloxyphenyl)-1,2,4-triazolo[4,3-a]pyridin-3(2H)-one]
melting point: 145 to 148 °C | Evaluation index Tall morning glory (tall morningglory; 1 g/a): 5 (maximum *all dead) 100) | Evaluation index Tall morning glory (tall morningglory; 10 g/a): 5 (maximum *all dead) 100) | Evaluation index Velvet leaf (velvetleaf; 1 g/a): 5 (maximum *all dead) 100) | Evaluation index Velvet leaf (velvetleaf; 10 g/a): 5 (maximum *all dead) 100) | Evaluation index Corn (phytotoxicity) (corn; 1 g/a): 0 (no effect 0) | Evaluation index Corn (phytotoxicity) (corn; 10 g/a): 1 (small 0.1 to 12.5)

CC(C)OC(=O)c1cc(-n2nc3ccc(Cl)cn3c2=O)c(F)cc1Cl [Compound No. A-33, Isopropyl 2-chloro-4-fluoro-5-(6-chloro-2,3-dihydro-3-oxo-1,2,4-triazolo[4,3-a]pyridin-2-yl)benzoate]
melting point: 120 to 123 °C

CCOC(=O)COC(=O)c1cc(-n2nc3ccc(Cl)cn3c2=O)c(F)cc1Cl [Compound No. A-34, Ethoxycarbonylmethyl 2-chloro-4-fluoro-5-(6-chloro-2,3-dihydro-3-oxo-1,2,4-triazolo[4,3-a]pyridin-2-yl)benzoate]
Evaluation index Redroot pigweed (redroot pigweed; 1 g/a): 5 (maximum *all dead) 100) | melting point: 62 to 65 °C | Evaluation index Velvet leaf (velvetleaf; 1 g/a): 4 (maximum 87.6 to 99.9) | Evaluation index Corn (phytotoxicity) (corn; 1 g/a): 1 (small 0.1 to 12.5)

CCS(=O)(=O)Nc1cc(-n2nc3ccc(Cl)cn3c2=O)c(F)cc1Cl [Compound No. A-35, 6-Chloro-2-(4-chloro-5-ethanesulfonylamino-2-fluorophenyl)-1,2,4-triazolo[4,3-a]pyridin-3(2H)-one]
Evaluation index Redroot pigweed (redroot pigweed; 10 g/a): 5 (maximum *all dead) 100) | melting point: 121 to 123 °C and 120 to 122 °C | Evaluation index Velvet leaf (velvetleaf; 10 g/a): 5 (maximum *all dead) 100) | Evaluation index Corn (phytotoxicity) (corn; 10 g/a): 1 (small 0.1 to 12.5)

COC(=O)C(Cl)Cc1cc(-n2nc3ccc(Cl)cn3c2=O)c(F)cc1Cl (centres unmarked) [Compound No. A-43, Methyl 2-chloro-3-[2-chloro-4-fluoro-5-(6-chloro-2,3-dihydro-3-oxo-1,2,4-triazolo[4,3-a]pyridin-2-yl)phenyl]propionate]
Evaluation index Redroot pigweed (redroot pigweed; 1 g/a): 5 (maximum *all dead) 100) | Evaluation index Redroot pigweed (redroot pigweed; 10 g/a): 5 (maximum *all dead) 100) | Evaluation index Velvet leaf (velvetleaf; 1 g/a): 5 (maximum *all dead) 100) | Evaluation index Velvet leaf (velvetleaf; 10 g/a): 5 (maximum *all dead) 100) | Evaluation index Corn (phytotoxicity) (corn; 1 g/a): 0 (no effect 0) | Evaluation index Corn (phytotoxicity) (corn; 10 g/a): 0 (no effect 0)

C#CCOc1cc(-n2nc3c(Cl)cc(Cl)cn3c2=O)c(F)cc1C#N [Compound No. A-49, 6,8-Dichloro-2-(4-cyano-2-fluoro-5-propargyloxyphenyl)-1,2,4-triazolo[4,3-a]pyridin-3(2H)-one]
melting point: 145 to 147 °C

CCS(=O)(=O)Nc1cc(-n2nc3n(c2=O)CCS3)c(F)cc1C#N [Compound No. C-2, 5,6-Dihydro-2-(4-cyano-5-ethylsulfonylamino-2-fluorophenyl)thiazolo[2,3-c][1,2,4]triazol-3(2H)-one]
Evaluation index Redroot pigweed (redroot pigweed; 1 g/a): 5 (maximum *all dead) 100) | Evaluation index Redroot pigweed (redroot pigweed; 10 g/a): 5 (maximum *all dead) 100) | Evaluation index Velvet leaf (velvetleaf; 1 g/a): 5 (maximum *all dead) 100) | Evaluation index Velvet leaf (velvetleaf; 10 g/a): 5 (maximum *all dead) 100) | Evaluation index Corn (phytotoxicity) (corn; 1 g/a): 0 (no effect 0) | Evaluation index Corn (phytotoxicity) (corn; 10 g/a): 0 (no effect 0)

CCS(=O)(=O)Nc1cc(-n2nc3n(c2=O)CCCS3)c(F)cc1C#N [Compound No. E-1, 5,6-Dihydro-2-(4-cyano-5-ethylsulfonylamino-2-fluorophenyl)-7H-[1,2,4]triazolo[3,4-b][1,3]thiazin-3(2H)-one]
Evaluation index Redroot pigweed (redroot pigweed; 1 g/a): 5 (maximum *all dead) 100) | Evaluation index Redroot pigweed (redroot pigweed; 10 g/a): 5 (maximum *all dead) 100) | melting point: 193 to 195 °C | Evaluation index Velvet leaf (velvetleaf; 1 g/a): 5 (maximum *all dead) 100) | Evaluation index Velvet leaf (velvetleaf; 10 g/a): 5 (maximum *all dead) 100) | Evaluation index Corn (phytotoxicity) (corn; 1 g/a): 1 (small 0.1 to 12.5) | Evaluation index Corn (phytotoxicity) (corn; 10 g/a): 1 (small 0.1 to 12.5)

C#CCOc1cc(-n2nc3n(c2=O)CCCN3)c(F)cc1Cl [Compound No. F-1, 5,6,7,8-Tetrahydro-2-(4-chloro-2-fluoro-5-propargyloxyphenyl)-[1,2,4]triazolo[4,3-a]pyrimidin-3(2H)-one]
Evaluation index Redroot pigweed (redroot pigweed; 1 g/a): 5 (maximum *all dead) 100) | Evaluation index Redroot pigweed (redroot pigweed; 10 g/a): 5 (maximum *all dead) 100) | melting point: 172 to 174 °C | Evaluation index Velvet leaf (velvetleaf; 1 g/a): 4 (maximum 87.6 to 99.9) | Evaluation index Velvet leaf (velvetleaf; 10 g/a): 5 (maximum *all dead) 100) | Evaluation index Corn (phytotoxicity) (corn; 1 g/a): 3 (big 25.1 to 50.0) | Evaluation index Corn (phytotoxicity) (corn; 10 g/a): 3 (big 25.1 to 50.0)

CCS(=O)(=O)Nc1cc(-n2nc3n(c2=O)CCCN3C)c(F)cc1C#N [Compound No. F-2, 5,6,7,8-Tetrahydro-8-methyl-2-(4-cyano-5-ethylsulfonylamino-2-fluorophenyl)-[1,2,4]triazolo [4,3-a]pyrimidin-3(2H)-one]
Evaluation index Redroot pigweed (redroot pigweed; 1 g/a): 5 (maximum *all dead) 100) | Evaluation index Redroot pigweed (redroot pigweed; 10 g/a): 5 (maximum *all dead) 100) | Evaluation index Velvet leaf (velvetleaf; 1 g/a): 4 (maximum 87.6 to 99.9) | Evaluation index Velvet leaf (velvetleaf; 10 g/a): 5 (maximum *all dead) 100) | Evaluation index Corn (phytotoxicity) (corn; 1 g/a): 1 (small 0.1 to 12.5) | Evaluation index Corn (phytotoxicity) (corn; 10 g/a): 3 (big 25.1 to 50.0)
